Assay results from US20260015436A1, “ANTIBODIES FOR CHELATED RADIONUCLIDES” (Hoffmann-La Roche Inc., priority 2018, published 2026).

Experiments:
BxPC3 tumors [1] = experiment: Protocol 93a: efficacy and biodistribution of CEA-PRIT, BxPC3 model; assay type: in vivo, mice; settings: day 47; 30+30 μCi
Experimental: (§1) The bispecific antibodies were compared side-by-side in single- and double-cycle treatment regimens.
(§2) Groups A-G represent the treated mice that were followed up for assessment of efficacy, whereas groups H-L comprise mice that were sacrificed for biodistribution purposes 24 h after their last ^212Pb-DOTAM injection.
For protocol 93a, mice (age 7 weeks) were injected s.c. into the right flank with 5×10^6 BxPC3 cells (passage 33) in 100 μL RPMI/Matrigel. Twelve days after tumor cell injection, mice were sorted into experimental groups with an average tumor volume of 235 mm^3.
(§3) To minimize re-ingestion of radioactive urine/feces after treatment cycle 1, cages were changed 4 hours after ^212Pb-DOTAM administration, and then again at 24 h p.i. […]
(§4) The tumor development in the mice was followed through repeated calipering three times a week. […] The body weight of the animals was measured repeatedly in the same fashion. […]
(§5) Mice in groups H, J, and L were sacrificed and necropsied 24 hours after their first and only injection of ^212Pb-DOTAM; groups I and K were sacrificed and necropsied 24 hours after their second ^212Pb-DOTAM injection. […] Collected samples were weighed and measured for radioactivity, and the percent injected dose per gram of tissue (% ID/g) subsequently calculated, including corrections for decay and background.

BxPC3 tumors [2] = experiment: Protocol 146: ^212Pb-DOTAM biodistribution and absorbed dose estimation after PRIT; assay type: in vivo, SCID mice; settings: for Mean absorbed dose, RBE = 1 / Mean absorbed dose, RBE = 5: 20 μCi pretargeted ^212Pb-DOTAM, tumor-bearing SCID
Experimental: Protocol 146 was designed to provide in vivo ^212Pb-DOTAM distribution data after PRIT for estimations of the absorbed radioactive dose to tumor and normal tissues, in SCID mice carrying s.c. BxPC3 tumors. The quenching of ^212Pb-DOTAM was performed using Ca (see example 34).
Pretargeting was performed by injection of CEA-DOTAM BsAb, followed 7 days later by the CA. After 24 hours, the ^212Pb-DOTAM was administered. Groups of mice were sacrificed at multiple time points from 5 minutes to 48 hours after the radioactive injection, and blood and organs harvested for radioactive measurement. Excrements were sampled at selected time points by use of metabolic cages to assess the excretion rate of the radioactive compound. Absorbed doses were finally calculated through established methods using the resulting time-activity curves.
Solid xenografts were established by s.c. injection of BxPC3 cells into SCID mice (Envigo) aged 8 weeks.
Mice in group E and F were individually housed (i.e. one mouse per cage) in grilled-floor metabolic cages. Urine and feces were collected from each cage 2, 6, and 24 hours after the radioactive injection, and the individual samples subsequently measured for radioactivity. Mice in group F were transferred to a regular cage 24 hours p.i.
Blood/serum was collected from all mice through retro-orbital bleeding before termination. After euthanasia, the following additional organs and tissues were harvested for radioactivity measurement and calculation of % ID/g: bladder, uterus, small intestine, colon, spleen, pancreas, kidneys, stomach, liver, lung, heart, brain, femoral bone, skin, muscle, abdominal fat, tail, and tumor.
Absorbed doses were calculated following the formalism outlined in Pamphlet No. 21 from the Medical Internal Radiation Dose (MIRD) Committee (Bolch W E, Eckerman K F, Sgouros G, and Thomas S R. J Nucl Med 2009; 50:477-484).
Formally, the absorbed dose D(rT) in a target tissue or region rT is calculated as the time-integral of the activity A(rS, t) multiplied by the absorbed dose rate per unit activity S(rT ←rS), summed over all source regions rS. Given that the vast majority of energy released by the ^212Pb decay chain comes from alpha radiation and furthermore by the much higher biological effectiveness of alpha radiation (as characterized by the relative biological effectiveness, RBE) two approximations were made: • 1. the energy is absorbed locally due to the short range of the alpha particles, which means that only the term S(rT←rT) is considered, and • 2. the contribution from beta and gamma radiation is neglected.
With Δα being the energy released by alpha decays, or rather the sum of the mean energies released by alpha decays in the decay chain of ^212Pb, here expressed in units J/(μCi·h), the absorbed dose in a target tissue or region rT is calculated by the formula: […]
The calculations are based on the composite (average) decay-corrected radioactive concentration at time t, expressed as [% ID/g]t. In a first step, these are transformed into radioactive concentrations as μCi per kg tissue weight for the target tissue rT:
A0[μCi]is the injected activity and λ is the exponential decay rate for ^212Pb, 0.0651 h^−1 (corresponding to the 10.6-hour half-life).
In a second step, the radioactive concentration was integrated over time for each tissue. This was achieved using the “Linear Log Trapezoidal calculation method” in the pharmacokinetic software Phoenix WinNonlin 6.4 (Certara USA, Inc., 100 Overlook Center, Suite 101, Princeton, NJ 08540 USA). The model type “Plasma” was used with uniform weighting.
In the final step, absorbed doses were calculated by multiplying the time integrals of the radioactive concentration by the energy release Δα=170·10^−6J/(μCi·h).

LS174T tumors = experiment: Protocol 93b: efficacy and biodistribution of CEA-PRIT, LS174T model; assay type: in vivo, mice; settings: day 22; 30+30 μCi
Experimental: as §1, §2
For protocol 93b, mice (age 9 weeks) were injected s.c. into the right flank with 1×10^6 LS174T cells (passage 26) in 100 μL DMEM/Matrigel. Three days after tumor cell injection, mice were sorted into experimental groups with an average tumor volume of 150 mm^3.
as §3, §4, §5

NC(=O)CN1CCN(CC(N)=O)CCN(CC(N)=O)CCN(CC(N)=O)CC1.[212Pb+2] [^212Pb-DOTAM]
tumor growth inhibition (TGI) compared with PBS (BxPC3 tumors [1]): 15.8% | accumulation of radioactivity in tumor (BxPC3 tumors [2]; 5 minutes after injection, pretargeted by CEA-DOTAM BsAb): 17 % ID/g | Mean absorbed dose, RBE = 1 (BxPC3 tumors [2]; Blood): 0.72 Gy | Mean absorbed dose, RBE = 5 (BxPC3 tumors [2]; Blood): 3.60 Gy | Mean absorbed dose, RBE = 1 (BxPC3 tumors [2]; Brain): 0.04 Gy | Mean absorbed dose, RBE = 5 (BxPC3 tumors [2]; Brain): 0.19 Gy | Mean absorbed dose, RBE = 1 (BxPC3 tumors [2]; Colon): 0.43 Gy | Mean absorbed dose, RBE = 1 (BxPC3 tumors [2]; Femoral bone): 0.27 Gy | Mean absorbed dose, RBE = 1 (BxPC3 tumors [2]; Heart): 0.33 Gy | Mean absorbed dose, RBE = 1 (BxPC3 tumors [2]; Liver): 0.22 Gy | Mean absorbed dose, RBE = 1 (BxPC3 tumors [2]; Muscle): 0.29 Gy | Mean absorbed dose, RBE = 1 (BxPC3 tumors [2]; Pancreas): 0.36 Gy | Mean absorbed dose, RBE = 5 (BxPC3 tumors [2]; Pancreas): 1.80 Gy | Mean absorbed dose, RBE = 5 (BxPC3 tumors [2]; Serum): 8.20 Gy | Mean absorbed dose, RBE = 1 (BxPC3 tumors [2]; Skin): 0.47 Gy | Mean absorbed dose, RBE = 1 (BxPC3 tumors [2]; Small intestine): 0.22 Gy | Mean absorbed dose, RBE = 1 (BxPC3 tumors [2]; Spleen): 0.27 Gy | Mean absorbed dose, RBE = 1 (BxPC3 tumors [2]; Stomach): 0.24 Gy | Mean absorbed dose, RBE = 5 (BxPC3 tumors [2]; Stomach): 1.20 Gy | Mean absorbed dose, RBE = 1 (BxPC3 tumors [2]; Tail): 0.54 Gy | Mean absorbed dose, RBE = 1 (BxPC3 tumors [2]; Uterus): 0.61 Gy | TGI compared with PBS (LS174T tumors): 64.7%
